Assay results as given in US20240122180A1, “FUNGICIDAL HALOMETHYL KETONES AND HYDRATES AND THEIR MIXTURES” (FMC Corporation, priority 2020, published 2024).

What was measured:
[1] = tested on: Phakopsora pachyrhizi (the causal agent of Asian soybean rust); experiment: Test A: preventive spray on soybean seedlings, visual disease rating (100 = 100% control; * 50 ppm, ** 10 ppm, *** 250 ppm); type: in vivo; conditions: 100 = 100% disease control, 0 = no control
How it was run: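 Soybean seedlings sprayed to run-off with compound suspended in acetone/water with 250 ppm PEG400 surfactant, inoculated next day with P. pachyrhizi spores. Kept 24 h saturated at 22 °C, then 8 days at 22 °C before visual rating of disease control (0-100) relative to controls.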

[2] = tested on: Puccinia recondita f. sp. tritici (the causal agent of wheat leaf rust); experiment: Test B: preventive spray on wheat seedlings, disease rating (100 = 100% control; * 50 ppm, ** 10 ppm, *** 250 ppm); type: in vivo; conditions: 100 = 100% disease control, 0 = no control
How it was run: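 Wheat seedlings sprayed to run-off with compound in acetone/water (50/50) containing 250 ppm PEG400, inoculated next day with Puccinia recondita f. sp. tritici spores. Held 24 h saturated at 20° C, then 6 days at 20° C; disease control rated 0–100 relative to controls.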

CCO/C(=C\Oc1ccc(Cn2cnc(SC)n2)cc1)C(F)(F)F [compound 261]
Test A disease control rating ([1]; 10 ppm test suspension): 0% | Test B disease control rating ([2]; 10 ppm test suspension): 0%

CCOC(=O)c1cnn(C(C)c2ccc(O/C=C(\OCC)C(F)(F)F)cc2)c1 (centres unmarked) [compound 267]
Test A disease control rating ([1]; 10 ppm test suspension): 94% | Test B disease control rating ([2]; 10 ppm test suspension): 0%

CCOC(=O)C1CCN(Cc2ccc(O/C=C(\OCC)C(F)(F)F)cc2)CC1 [compound 268]
Test A disease control rating ([1]; 10 ppm test suspension): 99% | Test B disease control rating ([2]; 10 ppm test suspension): 0%

CCOC(=O)C1CCCN(Cc2ccc(O/C=C(\OCC)C(F)(F)F)cc2)C1 (centres unmarked) [compound 269]
Test A disease control rating ([1]; 10 ppm test suspension): 100% | Test B disease control rating ([2]; 10 ppm test suspension): 0%

O=C(OCC1CCCCC1)c1cnn(Cc2ccc(OCC3(C(F)(F)F)OCCO3)cc2)c1 [compound 272]
Test A disease control rating ([1]; 10 ppm test suspension): 100% | Test B disease control rating ([2]; 10 ppm test suspension): 0%

O=C(NCC(F)(F)F)c1cnc(Cc2ccc(OCC(O)(O)C(F)(F)F)cc2)o1 [compound 274]
Test A disease control rating ([1]; 10 ppm test suspension): 48% | Test B disease control rating ([2]; 10 ppm test suspension): 0%

O=C(NCC(F)(F)F)c1cnc(Cc2ccc(OCC3(C(F)(F)F)OCCO3)cc2)s1 [compound 275]
Test A disease control rating ([1]; 10 ppm test suspension): 0% | Test B disease control rating ([2]; 10 ppm test suspension): 0%

O=C(NCC(F)(F)F)c1cnc(Cc2ccc(OCC(O)(O)C(F)(F)F)cc2)s1 [compound 277]
Test A disease control rating ([1]; 10 ppm test suspension): 50% | Test B disease control rating ([2]; 10 ppm test suspension): 45%

CCOC(=O)C1=NOC(c2ccc(O/C=C(\OCC)C(F)(F)F)cc2)C1 (centres unmarked) [compound 278]
Test A disease control rating ([1]; 50 ppm test suspension): 94% | Test B disease control rating ([2]; 50 ppm test suspension): 0%

CCOC(=COc1ccc([N+](=O)[O-])cc1)C(F)(F)F [compound 279]
Test A disease control rating ([1]; 50 ppm test suspension): 0% | Test B disease control rating ([2]; 50 ppm test suspension): 0%

CSc1nccc(Cc2ccc(OCC3(C(F)(F)F)OCCO3)cc2)n1 [compound 281]
Test A disease control rating ([1]; 50 ppm test suspension): 95% | Test B disease control rating ([2]; 50 ppm test suspension): 98%

CS(=O)(=O)c1nccc(Cc2ccc(OCC3(C(F)(F)F)OCCO3)cc2)n1 [compound 282]
Test A disease control rating ([1]; 50 ppm test suspension): 0% | Test B disease control rating ([2]; 50 ppm test suspension): 0%

O=C(OCC1CCCC1)c1cnn(Cc2ccc(OCC3(C(F)(F)F)OCCO3)cc2)c1 [compound 284]
Test A disease control rating ([1]; 10 ppm test suspension): 100% | Test B disease control rating ([2]; 10 ppm test suspension): 0%

CCOC(=O)c1cnn(CCCc2ccc(OCC(O)(O)C(F)(F)F)cc2)c1 [compound 286]
Test A disease control rating ([1]; 10 ppm test suspension): 87% | Test B disease control rating ([2]; 10 ppm test suspension): 55%

CCOC(=O)C1=NOC(Cc2ccc(OC=C(OCC)C(F)(F)F)cc2)C1 (centres unmarked) [compound 287]
Test A disease control rating ([1]; 50 ppm test suspension): 77% | Test B disease control rating ([2]; 50 ppm test suspension): 0%

CCOC(=COc1ccc(CC2CC(C(=O)N(C)C)=NO2)cc1)C(F)(F)F (centres unmarked) [compound 288]
Test A disease control rating ([1]; 50 ppm test suspension): 96% | Test B disease control rating ([2]; 50 ppm test suspension): 0%

CCOC(=O)C1=NOC(Cc2ccc(OCC3(C(F)(F)F)OCCO3)cc2)C1 (centres unmarked) [compound 289]
Test A disease control rating ([1]; 10 ppm test suspension): 0% | Test B disease control rating ([2]; 10 ppm test suspension): 0%

CN(C)C(=O)C1=NOC(Cc2ccc(OCC3(C(F)(F)F)OCCO3)cc2)C1 (centres unmarked) [compound 290]
Test A disease control rating ([1]; 50 ppm test suspension): 50% | Test B disease control rating ([2]; 50 ppm test suspension): 19%

C=CCOC(=O)c1ccn(Cc2ccc(OC=C(OCC)C(F)(F)F)cc2)n1 [compound 291]
Test A disease control rating ([1]; 10 ppm test suspension): 100% | Test B disease control rating ([2]; 10 ppm test suspension): 0%

CCCOC(=O)c1ccn(Cc2ccc(OC=C(OCC)C(F)(F)F)cc2)n1 [compound 292]
Test A disease control rating ([1]; 10 ppm test suspension): 100% | Test B disease control rating ([2]; 10 ppm test suspension): 0%

CC#CCOC(=O)c1ccn(Cc2ccc(O/C=C(\OCC)C(F)(F)F)cc2)n1 [compound 293]
Test A disease control rating ([1]; 10 ppm test suspension): 100% | Test B disease control rating ([2]; 10 ppm test suspension): 0%

CCOC(=O)c1cnn(CCCc2ccc(O/C=C(\OCC)C(F)(F)F)cc2)c1 [compound 294]
Test A disease control rating ([1]; 10 ppm test suspension): 100% | Test B disease control rating ([2]; 10 ppm test suspension): 0%

O=C(NCC(F)F)c1cnc(Cc2ccc(OCC(O)(O)C(F)(F)F)cc2)s1 [compound 295]
Test A disease control rating ([1]; 50 ppm test suspension): 99% | Test B disease control rating ([2]; 50 ppm test suspension): 80%

CCOC(=O)c1cnn(CCCc2ccc(OCC3(C(F)(F)F)OCCO3)cc2)c1 [compound 296]
Test A disease control rating ([1]; 10 ppm test suspension): 0% | Test B disease control rating ([2]; 10 ppm test suspension): 0%

CCOC(=O)c1cnn(Cc2ccc(O/C=C(\OCC)C(F)(F)F)cc2)c1 [compound 298]
Test A disease control rating ([1]; 10 ppm test suspension): 0% | Test B disease control rating ([2]; 10 ppm test suspension): 0%

CCO/C(=C\Oc1ccc(Cn2ccc(C(=O)O)n2)cc1)C(F)(F)F [compound 299]
Test A disease control rating ([1]; 10 ppm test suspension): 100% | Test B disease control rating ([2]; 10 ppm test suspension): 0%

CC#CCOC(=O)c1cnn(Cc2cccc(O/C=C(\OCC)C(F)(F)F)c2)c1 [compound 300]
Test A disease control rating ([1]; 10 ppm test suspension): 100% | Test B disease control rating ([2]; 10 ppm test suspension): 0%

CCOC(=O)c1cnn(Cc2cc(O/C=C(\OCC)C(F)(F)F)ccc2F)c1 [compound 302]
Test A disease control rating ([1]; 50 ppm test suspension): 99% | Test B disease control rating ([2]; 50 ppm test suspension): 0%
